What was measured:
Test in all cases: KINOMEscan competition binding
Conditions in all cases: compound 10.0 µM
ZAP70 (human) = ZAP70 (human) (UniProt P43403)
STK32C (human) = STK32C (human) (UniProt Q86UX6)
SYK (human) = SYK (human) (UniProt P43405)
MAP3K7 (human) = MAP3K7 (human) (UniProt O43318)
PKN1 (human) = PKN1 (human) (UniProt Q16512)
LRRK2 (human) = LRRK2 (human) (UniProt Q5S007)
PRKACA (human) = PRKACA (human) (UniProt P17612)
STK17A (human) = STK17A (human) (UniProt Q9UEE5)
MAP3K4 (human) = MAP3K4 (human) (UniProt Q9Y6R4)
RAF1 (human) = RAF1 (human) (UniProt P04049)
GAK (human) = GAK (human) (UniProt O14976)
Chain of GAK (human) (O14976 whole entry, looked up): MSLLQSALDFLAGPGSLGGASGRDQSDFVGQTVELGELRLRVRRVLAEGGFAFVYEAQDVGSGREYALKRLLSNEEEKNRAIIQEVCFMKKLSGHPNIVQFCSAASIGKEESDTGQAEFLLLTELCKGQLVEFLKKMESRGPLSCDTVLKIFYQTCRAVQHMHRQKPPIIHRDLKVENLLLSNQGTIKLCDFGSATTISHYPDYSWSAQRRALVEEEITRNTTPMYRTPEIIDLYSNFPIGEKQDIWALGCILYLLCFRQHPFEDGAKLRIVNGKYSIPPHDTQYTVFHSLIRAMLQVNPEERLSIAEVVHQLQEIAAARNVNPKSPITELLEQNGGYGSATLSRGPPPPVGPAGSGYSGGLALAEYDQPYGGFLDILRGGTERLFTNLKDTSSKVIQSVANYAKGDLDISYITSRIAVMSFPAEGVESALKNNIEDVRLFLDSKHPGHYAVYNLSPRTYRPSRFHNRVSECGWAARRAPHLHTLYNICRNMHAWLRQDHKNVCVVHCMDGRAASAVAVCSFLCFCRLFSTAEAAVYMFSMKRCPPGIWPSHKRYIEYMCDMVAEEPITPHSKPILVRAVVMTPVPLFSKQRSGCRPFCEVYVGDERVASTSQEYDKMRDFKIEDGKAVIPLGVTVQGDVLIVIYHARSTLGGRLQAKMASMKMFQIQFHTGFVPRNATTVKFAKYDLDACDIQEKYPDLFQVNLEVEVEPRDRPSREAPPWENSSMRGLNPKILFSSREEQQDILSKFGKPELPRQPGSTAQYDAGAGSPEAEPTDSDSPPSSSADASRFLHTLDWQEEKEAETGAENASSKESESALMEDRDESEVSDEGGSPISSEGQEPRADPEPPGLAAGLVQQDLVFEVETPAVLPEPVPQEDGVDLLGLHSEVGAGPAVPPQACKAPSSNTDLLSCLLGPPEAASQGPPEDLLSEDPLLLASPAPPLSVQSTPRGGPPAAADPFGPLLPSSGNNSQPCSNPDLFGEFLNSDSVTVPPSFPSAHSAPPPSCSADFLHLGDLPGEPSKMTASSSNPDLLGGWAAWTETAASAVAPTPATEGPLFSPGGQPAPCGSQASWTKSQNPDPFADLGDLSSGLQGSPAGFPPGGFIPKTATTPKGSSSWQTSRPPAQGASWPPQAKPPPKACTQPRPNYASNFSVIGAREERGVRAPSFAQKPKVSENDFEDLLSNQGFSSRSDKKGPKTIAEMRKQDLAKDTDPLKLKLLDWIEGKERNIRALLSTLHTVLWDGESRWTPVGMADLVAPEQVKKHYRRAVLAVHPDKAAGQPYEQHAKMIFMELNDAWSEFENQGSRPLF

GSK3B (human) = GSK3B (human) (UniProt P49841)
NLK (human) = NLK (human) (UniProt Q9UBE8)
Chain of NLK (human) (Q9UBE8 whole entry, looked up): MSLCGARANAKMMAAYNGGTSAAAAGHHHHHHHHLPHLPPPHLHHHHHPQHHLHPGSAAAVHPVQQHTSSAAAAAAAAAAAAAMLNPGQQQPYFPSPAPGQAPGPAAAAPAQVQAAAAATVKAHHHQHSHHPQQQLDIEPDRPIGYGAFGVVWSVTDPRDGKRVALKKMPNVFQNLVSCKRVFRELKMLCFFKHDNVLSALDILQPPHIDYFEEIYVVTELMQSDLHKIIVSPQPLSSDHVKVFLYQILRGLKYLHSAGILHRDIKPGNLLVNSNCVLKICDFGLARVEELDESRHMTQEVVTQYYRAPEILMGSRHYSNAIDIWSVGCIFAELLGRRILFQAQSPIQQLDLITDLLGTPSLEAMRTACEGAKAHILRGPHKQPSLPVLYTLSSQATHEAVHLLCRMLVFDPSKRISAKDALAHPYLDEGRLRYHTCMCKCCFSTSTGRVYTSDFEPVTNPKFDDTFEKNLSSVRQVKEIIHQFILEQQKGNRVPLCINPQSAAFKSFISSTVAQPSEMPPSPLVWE

MAPKAPK2 (human) = MAPKAPK2 (human) (UniProt P49137)
MAP3K14 (human) = MAP3K14 (human) (UniProt Q99558)
Chain of MAP3K14 (human) (Q99558 whole entry, looked up): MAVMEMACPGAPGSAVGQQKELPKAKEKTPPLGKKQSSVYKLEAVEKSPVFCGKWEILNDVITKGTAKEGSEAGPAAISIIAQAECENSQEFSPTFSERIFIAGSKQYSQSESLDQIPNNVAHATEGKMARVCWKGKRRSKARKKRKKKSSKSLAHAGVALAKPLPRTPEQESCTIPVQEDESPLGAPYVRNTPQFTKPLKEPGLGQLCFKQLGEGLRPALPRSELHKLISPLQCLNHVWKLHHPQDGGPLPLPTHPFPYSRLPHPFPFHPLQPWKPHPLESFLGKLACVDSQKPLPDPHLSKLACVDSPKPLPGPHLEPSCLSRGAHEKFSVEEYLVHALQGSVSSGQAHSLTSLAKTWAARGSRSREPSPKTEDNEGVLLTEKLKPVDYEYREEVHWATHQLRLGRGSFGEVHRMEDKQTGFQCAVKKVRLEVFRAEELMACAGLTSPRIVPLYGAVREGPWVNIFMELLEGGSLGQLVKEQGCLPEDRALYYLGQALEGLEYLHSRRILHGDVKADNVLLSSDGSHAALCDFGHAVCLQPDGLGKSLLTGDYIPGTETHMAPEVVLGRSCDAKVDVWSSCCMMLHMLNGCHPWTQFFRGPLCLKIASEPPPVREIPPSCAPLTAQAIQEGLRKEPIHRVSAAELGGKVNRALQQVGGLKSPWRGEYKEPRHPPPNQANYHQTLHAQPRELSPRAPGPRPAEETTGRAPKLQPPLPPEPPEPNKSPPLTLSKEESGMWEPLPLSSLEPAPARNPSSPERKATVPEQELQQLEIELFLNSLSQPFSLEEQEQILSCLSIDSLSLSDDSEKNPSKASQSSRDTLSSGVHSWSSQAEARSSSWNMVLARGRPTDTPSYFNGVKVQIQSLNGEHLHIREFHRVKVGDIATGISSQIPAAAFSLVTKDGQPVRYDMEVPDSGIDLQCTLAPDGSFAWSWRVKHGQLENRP

BMPR2 (human) = BMPR2 (human) (UniProt Q13873)
DCLK1 (human) = DCLK1 (human) (UniProt O15075)
DMPK (human) = DMPK (human) (UniProt Q09013)
PDGFRB (human) = PDGFRB (human) (UniProt P09619)
ACVR1B (human) = ACVR1B (human) (UniProt P36896)
FGFR2 (human) = FGFR2 (human) (UniProt P21802)
AURKB (human) = AURKB (human) (UniProt Q96GD4)
ULK2 (human) = ULK2 (human) (UniProt Q8IYT8)
CSF1R (human) = CSF1R (human) (UniProt P07333)
ROCK2 (human) = ROCK2 (human) (UniProt O75116)
PIK3CG (human) = PIK3CG (human) (UniProt P48736)
[1] = system: BRAF (human), P15056 [V600E]
TGFBR1 (human) = TGFBR1 (human) (UniProt P36897)
CAMK4 (human) = CAMK4 (human) (UniProt Q16566)
MET (human) = MET (human) (UniProt P08581)
ERBB2 (human) = ERBB2 (human) (UniProt P04626)
RPS6KA3 KD1 (human) = RPS6KA3 KD1 (human) (UniProt P51812)
Chain of RPS6KA3 KD1 (human) (P51812 whole entry, looked up): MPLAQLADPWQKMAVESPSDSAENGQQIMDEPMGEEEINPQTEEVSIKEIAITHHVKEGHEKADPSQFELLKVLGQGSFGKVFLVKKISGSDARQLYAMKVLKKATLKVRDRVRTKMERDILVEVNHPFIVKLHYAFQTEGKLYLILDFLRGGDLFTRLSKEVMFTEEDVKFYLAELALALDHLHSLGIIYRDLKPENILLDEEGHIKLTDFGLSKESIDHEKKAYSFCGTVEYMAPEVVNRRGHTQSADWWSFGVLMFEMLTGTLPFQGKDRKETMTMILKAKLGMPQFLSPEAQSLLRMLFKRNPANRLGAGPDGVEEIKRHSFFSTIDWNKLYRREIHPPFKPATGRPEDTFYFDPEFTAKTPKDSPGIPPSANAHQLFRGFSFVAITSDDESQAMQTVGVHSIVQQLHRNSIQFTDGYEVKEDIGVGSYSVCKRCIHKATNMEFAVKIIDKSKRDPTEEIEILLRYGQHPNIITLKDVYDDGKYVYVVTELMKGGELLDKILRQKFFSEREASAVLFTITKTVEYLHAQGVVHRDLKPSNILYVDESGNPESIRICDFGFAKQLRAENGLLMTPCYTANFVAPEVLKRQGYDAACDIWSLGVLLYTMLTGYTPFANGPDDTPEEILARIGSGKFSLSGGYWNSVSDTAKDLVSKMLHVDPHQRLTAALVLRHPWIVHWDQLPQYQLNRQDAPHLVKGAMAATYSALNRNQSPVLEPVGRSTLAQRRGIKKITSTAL

AURKA (human) = AURKA (human) (UniProt O14965)
EPHA2 (human) = EPHA2 (human) (UniProt P29317)
ACVR2B (human) = ACVR2B (human) (UniProt Q13705)
CLK3 (human) = CLK3 (human) (UniProt P49761)
Chain of CLK3 (human) (P49761 whole entry, looked up): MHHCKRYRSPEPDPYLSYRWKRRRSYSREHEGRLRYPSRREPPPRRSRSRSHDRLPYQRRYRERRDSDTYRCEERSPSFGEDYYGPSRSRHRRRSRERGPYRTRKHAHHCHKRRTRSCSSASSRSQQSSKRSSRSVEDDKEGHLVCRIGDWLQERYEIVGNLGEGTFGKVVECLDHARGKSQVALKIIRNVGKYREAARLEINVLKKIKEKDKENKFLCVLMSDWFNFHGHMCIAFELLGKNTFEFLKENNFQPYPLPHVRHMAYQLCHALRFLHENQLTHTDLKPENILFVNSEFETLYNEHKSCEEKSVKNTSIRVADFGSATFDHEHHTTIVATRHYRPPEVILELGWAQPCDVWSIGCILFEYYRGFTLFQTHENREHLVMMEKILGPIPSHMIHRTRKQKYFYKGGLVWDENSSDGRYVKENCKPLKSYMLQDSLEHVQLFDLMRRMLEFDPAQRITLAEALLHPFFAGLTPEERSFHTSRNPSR

CDK16 (human) = CDK16 (human) (UniProt Q00536)
CDK11B (human) = CDK11B (human) (UniProt P21127)
Chain of CDK11B (human) (P21127 whole entry, looked up): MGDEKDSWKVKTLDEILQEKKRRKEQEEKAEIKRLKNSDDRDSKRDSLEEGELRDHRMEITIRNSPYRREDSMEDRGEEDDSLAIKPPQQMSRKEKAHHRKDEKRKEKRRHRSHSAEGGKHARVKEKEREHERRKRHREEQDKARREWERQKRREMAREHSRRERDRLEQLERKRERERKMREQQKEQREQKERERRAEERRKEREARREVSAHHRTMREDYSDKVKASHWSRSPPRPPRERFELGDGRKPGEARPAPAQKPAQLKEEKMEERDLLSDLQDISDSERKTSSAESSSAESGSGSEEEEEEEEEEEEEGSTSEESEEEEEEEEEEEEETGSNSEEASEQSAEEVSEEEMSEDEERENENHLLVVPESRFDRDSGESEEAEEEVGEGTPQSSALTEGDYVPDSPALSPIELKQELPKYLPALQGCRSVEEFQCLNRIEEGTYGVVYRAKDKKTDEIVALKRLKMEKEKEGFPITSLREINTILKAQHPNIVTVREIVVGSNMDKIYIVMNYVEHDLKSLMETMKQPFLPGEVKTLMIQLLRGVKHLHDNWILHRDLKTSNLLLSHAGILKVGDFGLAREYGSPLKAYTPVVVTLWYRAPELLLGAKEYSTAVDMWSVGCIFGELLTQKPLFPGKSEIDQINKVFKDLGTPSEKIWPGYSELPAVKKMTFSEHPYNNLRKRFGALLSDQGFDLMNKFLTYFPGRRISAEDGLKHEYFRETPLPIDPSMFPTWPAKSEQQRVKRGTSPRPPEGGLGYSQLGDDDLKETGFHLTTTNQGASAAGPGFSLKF

SIK1 (human) = SIK1 (human) (UniProt P57059)
PAK1 (human) = PAK1 (human) (UniProt Q13153)
HCK (human) = HCK (human) (UniProt P08631)

O=C(Nc1ccc(Oc2ncnc3[nH]ncc23)cc1)Nc1ccc(Cl)c(C(F)(F)F)c1
kinase still bound, per cent of control (ZAP70 (human)): 100% | kinase still bound, per cent of control (STK32C (human)): 96% | kinase still bound, per cent of control (SYK (human)): 56% | kinase still bound, per cent of control (MAP3K7 (human)): 7.2% | kinase still bound, per cent of control (PKN1 (human)): 100% | kinase still bound, per cent of control (LRRK2 (human)): 83% | kinase still bound, per cent of control (PRKACA (human)): 69% | kinase still bound, per cent of control (STK17A (human)): 62% | kinase still bound, per cent of control (MAP3K4 (human)): 87% | kinase still bound, per cent of control (RAF1 (human)): 1% | kinase still bound, per cent of control (GAK (human)): 90% | kinase still bound, per cent of control (GSK3B (human)): 99% | kinase still bound, per cent of control (NLK (human)): 44% | kinase still bound, per cent of control (MAPKAPK2 (human)): 100% | kinase still bound, per cent of control (MAP3K14 (human)): 97% | kinase still bound, per cent of control (BMPR2 (human)): 81% | kinase still bound, per cent of control (DCLK1 (human)): 82% | kinase still bound, per cent of control (DMPK (human)): 100% | kinase still bound, per cent of control (PDGFRB (human)): 0% | kinase still bound, per cent of control (ACVR1B (human)): 100% | kinase still bound, per cent of control (FGFR2 (human)): 51% | kinase still bound, per cent of control (AURKB (human)): 4.7% | kinase still bound, per cent of control (ULK2 (human)): 82% | kinase still bound, per cent of control (CSF1R (human)): 0.3% | kinase still bound, per cent of control (ROCK2 (human)): 63% | kinase still bound, per cent of control (PIK3CG (human)): 98% | kinase still bound, per cent of control [1]: 0.55% | kinase still bound, per cent of control (TGFBR1 (human)): 93% | kinase still bound, per cent of control (CAMK4 (human)): 100% | kinase still bound, per cent of control (MET (human)): 58% | kinase still bound, per cent of control (ERBB2 (human)): 100% | kinase still bound, per cent of control (RPS6KA3 KD1 (human)): 100% | kinase still bound, per cent of control (AURKA (human)): 23% | kinase still bound, per cent of control (EPHA2 (human)): 37% | kinase still bound, per cent of control (ACVR2B (human)): 100% | kinase still bound, per cent of control (CLK3 (human)): 65% | kinase still bound, per cent of control (CDK16 (human)): 98% | kinase still bound, per cent of control (CDK11B (human)): 69% | kinase still bound, per cent of control (SIK1 (human)): 100% | kinase still bound, per cent of control (PAK1 (human)): 86% | kinase still bound, per cent of control (HCK (human)): 32%

Source: the kinase profiling compilation of Christmann-Franck et al. (2016)
